# Experimental data from PMC5495782, “Designed α-sheet peptides suppress amyloid formation in Staphylococcus aureus biofilms” (NPJ Biofilms and Microbiomes, 2017).
# “Also recorded” adds a separate entry of the source. Where a SMILES comes first, the peptide text is derived from it. [ ]: non-standard residue; d: D form.
# Columns and labels:
# [1] = CD spectroscopy of designed and control peptides; assay type: physicochemical; conditions: 100 µM (RC 30 µM), phosphate buffer (β and AP193: acetate buffer), room temperature
# Procedure: AP407 is a variant of AP90 with a disulfide bond. […] An unstructured random coil peptide (RC) and a β-sheet hairpin (β) are used as structural controls.[25], [26]
# CD spectra of RC, β, AP90, AP401, AP407, and AP193. Peptides were
# dissolved to a concentration of 100 µM (except for RC, which was 30 µM) in phosphate
# buffer (except for β and AP193, which were in acetate buffer) and spectra were
# acquired at room temperature. […] MRE = mean residue ellipticity.
# [2] = ref [25]; cited from earlier work
# Excerpt: In addition, the structural properties of the peptide provide a benchmark, or spectroscopic signature, for α-sheet structure, which can be used to interpret spectra of amyloid species. The main α-sheet design used here is AP90 (Alternating Peptide #90, referred to as α1 previously, [26]), but we also tested several other designs (Supp ...
# [3] = tested on: S. aureus biofilm; assay: Crystal Violet staining of S. aureus biofilm (24 h batch growth); assay type: cell-based, Staphylococcus aureus; conditions: 24 h batch growth in microtiter plates; 0.5% w/v Crystal Violet, absorbance at 550 nm; strain not stated; peptide 80 μM unless otherwise noted
# Procedure: We employed two S. aureus strains—SH1000 WT, a rsbU ^+ laboratory strain,[27] and MN8, a clinical strain isolated from the human urogenital tract[28] (Supplementary Table S2). First we confirmed that the cells formed biofilms by batch growth of the bacteria in microtiter plates through staining with Crystal Violet dye after 24 h. Application of our AP90 α-sheet design led to a 54% reduction in biofilm. As crystal violet is a crude measure of the extent of biofilm formation, we assessed amyloid fibril formation in the biofilms by adapting the conventional Thioflavin T (ThT) amyloid fibril assay for use in live cells. After 24 h of batch growth in microtiter plates, the biofilms were washed and incubated with ThT, and the resulting fluorescence signals served as a proxy for the extent of fibril formation in the EM (Fig. 1a). Next, we utilized this assay to test the α-sheet inhibitor designs and control peptides described above (sequences provided in Supplementary Table S1). […]
# ThT, an established fluorescent label for amyloid fibrils,[43] was then added to each well at a concentration of 22 μM and biofilms were incubated statically for 4 h at room temperature. […] Fluorescence measurements were corrected by subtracting the background intensity of identical samples without ThT (in the case of the biofilms) or PSMα1 (for the in vitro measurements). […]
# [4] = tested on: synthetic PSMα1; assay: PSMα1 fibrillization assay with added inhibitors (ThT), LB medium; assay type: biochemical, Staphylococcus aureus; conditions: LB medium + 0.34% DMSO, 37 °C
# Excerpt: (§1) Two different solvent conditions were used (0.34% DMSO in water, blue bars; LB medium + 0.34% DMSO, red bars) and aggregation was monitored by ThT fluorescence. Inhibition values for each peptide are reported as a percentage of the peptide-free control samples (0% inhibition). […] Fluorescence values in NaCl solution were quite high, so its curve is shown as an inset.
# [5] = tested on: S. aureus SH1000 WT biofilm PSM amyloid fibrils; assay: TEM of biofilms for extracellular fibril deposits; assay type: cell-based, Staphylococcus aureus SH1000 WT; conditions: 80 μM AP90, biofilms grown 24 h
# Procedure: To further investigate the ability of designed peptides to inhibit PSM amyloid formation, fluorescent (mCherry) S. aureus MN8 biofilms were grown in culture plates with glass bottom wells with or without α-sheet inhibitors. After 24 h at 37 °C the biofilms were gently rinsed with pipetted saline to remove unattached biomass and the remaining attached cells were fixed and imaged. A robust biofilm formed on the glass at the bottom of each well in LB medium alone (Fig. 2a); in contrast, there was significant disruption of the biofilm in the presence of the α-sheet compounds. […] Quantification of the images is presented in Supplementary Fig. S2. […] Addition of anti-α-sheet peptides triggered a significant reduction in PSM amyloid formation as measured by ThT fluorescence, which presumably weakened the S. aureus biofilms and their attachments by reducing the PSM amyloid fibril content of the EM. […]
# Fig. 2 S. aureus biofilm structures become less robust when grown in the presence of designed peptide inhibitors. a S. aureus MN8 + mCherry biofilms were grown on glass substrates for 24 h and then cells were washed and fixed. […] For quantification of the images see Supplementary Fig. S2. b In S. aureus SH1000 WT biofilms grown in regular LB medium, PSM amyloid fibrils were visible as deposits in spaces between cells (left).
# Images were analyzed using Gwyddion software (Czech Metrology Institute).
# [6] = molecular target: T1, PSMα1 (Staphylococcus aureus, UniProt A9JX05); assay type: binding; conditions: fresh (0 h), pre-incubated (48 h) and fibrillar (165 h) PSMα1; 2 h, 25 °C; GndHCl elution; NanoOrange fluorescence; six samples
# T1 construct: synthetic PSMα1 (f[…], where f denotes formylation, Ontores Biotechnologies); purchased Ontores Biotechnologies; host or cells: chemical synthesis
# Procedure: To further probe the interactions between PSMα1 and the designed α-sheet peptides, we immobilized AP90 on agarose beads and applied solutions of either (a) fresh (completely solubilized), (b) pre-incubated, (allowed to aggregate as in Fig. 6a for 48 h corresponding to α-sheet oligomer species) or (c) fibrillar PSMα1. The bead mixtures were contained within a micro-spin column, so the system was treated as a packed bed reactor and a series of phosphate buffered saline (PBS) washes was used to remove unbound material. The PSMα1 content of each wash was measured with a fluorescence-based assay. PSMα1 bound to immobilized AP90 was eluted with high guanidinium hydrochloride (GndHCl).
# Meanwhile, PSMα1 samples were prepared as above (see “PSM fibrillization assay”) and incubated at 37 °C. […] FT and the washes (W1-W7) were analyzed with the NanoOrange® Protein Quantitation Kit (Thermo Fisher Scientific). […] This approach was necessary because elution of bound PSMα1 with GndHCl obscures protein quantification, and unfortunately, the inability to quantify the GndHCl bound fractions prevents confirmation of the mass balance. […]
# were alternated with PBS washes (W8-W13). All eluents were then analyzed with the
# NanoOrange® Protein Quantitation Kit and fluorescence was used as an indicator of
# PSMα1 content in each eluent. Fluorescence measurements were normalized by the […]
# [7] = tested on: synthetic PSMα1; assay: PSMα1 fibrillization assay with added inhibitors (ThT), water; assay type: biochemical, Staphylococcus aureus; conditions: 30 μM PSMα1, inhibitor at 4:1 molar ratio, 0.34% v/v DMSO in ddH2O, pH 5, 37 °C, ThT 22 μM; SEM of 3–6 replicates; vs peptide-free control
# Excerpt: as §1
# [8] = molecular target: T1, PSMα1; assay: Biolayer interferometry, AP90 on sensor tip, PSMα1 in solution; assay type: binding; conditions: PSMα1 α-sheet-rich (~48 h) vs α-helix-rich (~0 h) or β-sheet-rich (~150 h)
# Procedure: The binding was explored further using biolayer interferometry, which analyzes interference patterns based on adsorption of samples to a biosensor tip.
# All biolayer interferometry experiments were performed on a BLItz biosensor system (ForteBio, Pall) using aminopropylsilane (APS) sensors. Sensors were hydrated in ddH2O + 22 μM ThT for 10 min prior to use; ThT was included to mirror the conditions of the corresponding aggregation curves.
# [9] = tested on: S. aureus SH1000 WT biofilm amyloid; assay: ThT fluorescence assay of amyloid in SH1000 WT biofilms; assay type: cell-based, Staphylococcus aureus SH1000 WT; conditions: 80 μM peptide, 24 h, 37 °C
# Procedure: (§2) Fig. 1 Screening of designed peptides for inhibition of amyloid formation in S. aureus biofilms. a Schematic of protocol for testing designed α-sheet peptides in S. aureus biofilm cultures with an illustration of the main-chain structure of the AP90 α-sheet design. b A panel of designed α-sheet peptides (AP90, AP401, and AP407), as well as random coil (RC) and β-hairpin controls (β), was tested against two S. aureus strains, MN8 (hashed bars) and SH1000 WT (white bars). […] Error bars in b and c represent the standard error of the mean for experiments performed in triplicate […]
# (§3) ThT, an established fluorescent label for amyloid fibrils,[43] was then added to each well at a concentration of 22 μM and biofilms were incubated statically for 4 h at room temperature. […] Plates were shaken at high speed for 1 min on a plate shaker to detach any remaining biofilm material and homogenize the samples, which were then transferred to a 96-well black-walled plate (Corning, TC-treated polystyrene) and ThT fluorescence was measured using an excitation wavelength of 438 nm and emission at 495 nm on a Perkin–Elmer Enspire plate reader (hereafter referred to as the plate reader). Fluorescence measurements were corrected by subtracting the background intensity of identical samples without ThT (in the case of the biofilms) or PSMα1 (for the in vitro measurements). […]
# [10] = tested on: S. aureus MN8 biofilm amyloid; assay: ThT fluorescence assay of amyloid in MN8 biofilms; assay type: cell-based, Staphylococcus aureus MN8; conditions: 24 h
# Procedure: as §2, §3
# T1 sequence (A9JX05 whole entry, looked up): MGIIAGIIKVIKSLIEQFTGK
structure (smiles),measurement,setting,value
CSCC[C@H](NC(=O)[C@@H](CCCCN)NC(=O)[C@H](CC(C)C)NC(=O)[C@@H](CC(N)=O)NC(=O)[C@H](CCSC)NC(=O)[C@H](NC(=O)[C@H](Cc1c[nH]c2ccccc12)NC(=O)CNC(=O)[C@H](CO)NC(=O)[C@H](Cc1ccc(O)cc1)NC(=O)[C@H](CCC(=O)O)NC(=O)[C@H](CC(N)=O)NC(=O)[C@H](CCSC)NC(=O)[C@@H](Cc1c[nH]c2ccccc12)NC(=O)[C@H](CO)NC(=O)[C@@H](CC(C)C)NC(=O)[C@H](CC(N)=O)NC(=O)[C@@H](CCSC)NC(=O)[C@H](CCC(=O)O)NC(=O)CNC(=O)[C@H](CCCNC(=N)N)NC(C)=O)[C@H](C)O)C(=O)NCC(=O)N[C@@H](CCCNC(=N)N)C(N)=O [AP90] (Ac-RGE[dM]N[dL]S[dW]MNEYSGW[dT]M[dN]L[dK]MGR-NH2),CD spectrum (secondary structure),[1],"featureless spectrum, except for negative ellipticity in the so-called random coil region around 195–200 nm"
same,"secondary structure by CD, FTIR and 2D NMR",[2],does not adopt conventional secondary structure
same,reduction in biofilm (Crystal Violet),[3],54%
same,inhibition of PSMα1 fibril formation,"[4]; 30 μM PSMα1, 1:4 PSMα1:inhibitor, ThT 22 μM, SEM of 3–6 replicates, vs peptide-free control",73 ± 11%
same,"effect on PSMα1 fibril formation, in words","[4]; 30 μM PSMα1, 1:4 PSMα1:peptide",inhibited fibril formation to nearly the same extent as in water; also recorded: inhibition by AP90 persisted
same,extracellular PSM fibril deposits by TEM,[5],amyloid fibrils could not be found; also recorded: no extracellular fibril deposits were observed; also recorded: no amyloid fibrils were visible
same,binding of PSMα1 samples to immobilized AP90,[6],more of the oligomer sample bound to the column than fresh or fibrillar material
same,inhibition of PSMα1 amyloid formation,[7],81 ± 5%
same,"binding preference by KD, in words",[8],preferential binding between AP90 and α-sheet-rich PSMα1 (~48 h)
same,"effect on amyloid fibril formation (ThT), in words",[9],significant reduction in amyloid fibril formation
same,reduction of amyloid fibril formation (ThT),"[9]; LB Lennox, ThT 22 μM, ex 438 / em 495 nm, vs peptide-free control, experiments in triplicate",~ 30%
same,"effect on amyloid fibril formation (ThT), in words","[10]; 80 μM peptide, 37 °C, effect particularly for the MN8 clinical isolate",significant reduction in amyloid fibril formation
same,"dose-response of biofilm amyloid content (ThT), in words",[10]; increasing concentrations of AP90 in culture medium,fibril formation decreased in a dose-dependent manner; also recorded: significant decrease in EM amyloid content as the concentration of AP90 is increased
